# Reference: patent US8114895B2, “Use of bipyridine compound ‘Caerulomycin A’ derivatives and analogs thereof as immunosuppressive agents” (Council of Science and Industrial Research, priority 2005, dated 2012)
# Entries after “also recorded” stand apart in the source; their conditions may differ. Like-named read-outs stand apart in the source and are kept apart here.
# What was measured:
# [1] = system: Splenocytes of BALB/c mice; assay: Proliferation of splenocytes stimulated with T cell and B cell mitogens (ConA, LPS); assay type: cell-based
# Experimental: Splenocytes of BALB/c mice were cultured (5×10^4 cells/well) in 200 μl RPMI/FCS-10% medium and stimulated with different concentrations of either ConA (1 μg/ml and 2 μg/ml) or LPS (5 μg/ml and 10 μg/ml) and Caerulomycin A (0.0003-0.1 μg/ml). The control cultures consisting of splenocytes incubated with medium alone, ConA and DMSO. After 48 h, the cultures were pulsed with 0.5 μCi of [^3H]-thymidine and harvested 14 h later by automatic cell harvester (Skatron, Tranby, Norway). Radioactivity incorporated was measured by liquid scintillation counting and data are expressed as mean counts per minute (cpm).
# Examples establishing the role of Caerulomycin A [isolated from a novel species of Actinoalloteichus] in inducing immunosuppression based on the following: • Splenocytes of BALB/c mice were stimulated with either ConA (1 μg/ml and 2 μg/ml) or LPS (5 μg/ml and 10 μg/ml) and were cultured with different concentrations of Caerulomycin A (0.0003-0.1 μg/ml). After 48 h, the cultures were pulsed with 0.5 μCi of [^3H]-thymidine and harvested 14 h later by automatic cell harvester. Radioactivity incorporated was measured by liquid scintillation counting. • Antigen ovalbumin (100 μg/ml) emulsified in Freund's complete adjuvant was injected in a group consisting of 5 BALB/c mice. […] Radioactivity incorporated was measured by liquid scintillation. The culture supernatants were collected after 48 h and cytokines were measured by ELISA. • Immunosuppressive effect of different doses of Caerulomycin A was monitored on naïve CD4^+ T cells, antigen reactive CD4^+ T cells, Th2 clone and Th1 hybridoma. […] Radioactivity incorporated was measured by liquid scintillation. • Immunosuppressive effect of Caerulomycin A on MLR reaction. […] After 4 days, the cultures were pulsed with 1 μCi of [^3H]-thymidine and harvested 16 h later and radioactivity incorporated was measured by liquid scintillation counting. • In vivo immunosuppressive effect of Caerulomycin A on the proliferation of T cells. […] CD28 and CTLA-4 expression was detected by flowcytometry on the surface of resting and ConA activated CD4^+ T cells. […]
# [2] = system: Th2 clones; assay: Kinetics of the effect on the proliferation of Th2 clones; assay type: cell-based; settings: anti-CD3 Ab 0.5 μg/ml, read-out: inhibitory effect on Th2 cells
# Experimental: Th2 clones (5×10^4/well) were stimulated with anti-CD3 Ab (0.5 μg/ml). Caerulomycin A (0.05 μg/ml) was added either at the initiation of the cultures (time 0) or at various time points (4 h-48 h) After 48 h of the cultures, [^3H]-thymidine was added, and its incorporation was measured 12 h later.
# [3] = Funk and Divekar 1959; cited from earlier work
# [4] = system: BALB/c splenocytes (responder cells) and γ-irradiated C57BL/6J splenocytes (stimulator cells); assay: Mixed lymphocyte reaction (MLR), [3H]-thymidine incorporation; assay type: cell-based, mice
# Experimental: The MLR was performed in 96-well tissue culture plates, with each well containing 4×10^5 BALB/c splenocytes (responder cells) and 4×10^5 γ-irradiated (3000R) C57BL/6J splenocytes (stimulator cells) in 200 μl RPMI/FCS-10% medium and with various concentrations of Caerulomycin A (1-0.0125 μg/ml) and Cyclosporin A (0.0125-10 μg/ml). The control cultures consisting of BALB/c splenocytes in medium alone, γ-irradiated C57BL/6J splenocytes and BALB/c splenocytes+γ-irradiated C57BL/6J splenocytes were also kept. After 4 days, the cultures were pulsed with 1 μCi of [^3H]-thymidine and harvested 16 h later by a Skatron cell harvester. Radioactivity incorporated was measured by liquid scintillation counting and data expressed as mean counts per minute (cpm).
# Examples establishing the role of Caerulomycin A [isolated from a novel species of Actinoalloteichus] in inducing immunosuppression based on the following: • Splenocytes of BALB/c mice were stimulated with either ConA (1 μg/ml and 2 μg/ml) or LPS (5 μg/ml and 10 μg/ml) and were cultured with different concentrations of Caerulomycin A (0.0003-0.1 μg/ml). […] Radioactivity incorporated was measured by liquid scintillation counting. • Antigen ovalbumin (100 μg/ml) emulsified in Freund's complete adjuvant was injected in a group consisting of 5 BALB/c mice. […] Radioactivity incorporated was measured by liquid scintillation. […]
smiles,measurement,setting,value
"COc1cc(/C=N/O)nc(-c2ccccn2)c1 [Caerulomycin A, (E)-4-methoxy-2,2′-bipyridine-6-carbaldehyde oxime]",proliferation of mitogen stimulated cells at the effective doses,[1]; Caerulomycin A 0.05 and 0.1 μg/ml,potent inhibition
same,proliferation of ConA stimulated cells,"[1]; ConA 1.0 and 2.0 μg/ml, Caerulomycin A 0.0003-0.1 μg/ml, 48 h",significant decrease
same,proliferation of cells stimulated with LPS,"[1]; LPS 5 and 10 μg/ml, Caerulomycin A 0.0003-0.1 μg/ml, 48 h",suppress the proliferation
same,inhibition at 0.05 µg/mL,[2]; 0.05 μg/ml added after 42 h,56%
same,inhibition at 0.05 µg/mL,[2]; 0.05 μg/ml added before 16 h of the initiation of the cultures,77 to 90%
same,antibacterial activity,[3],mild antibacterial activity
same,antifungal activity,[3],strong antifungal activity
same,MLR reaction (proliferation),"[4]; Caerulomycin A 1-0.0125 μg/ml, Cyclosporin A 0.0125-10 μg/ml, 4 days",dose dependent inhibition; also recorded: substantially reduced the MLR reaction
same,potency in inhibiting MLR relative to Cyclosporin A (CsA),[4]; similar amount of inhibition of proliferation at a lesser dose than CsA,10 fold
